From US8211412B2, “Method for skin whitening” (Shiseido Company Ltd., priority 2009, dated 2012)

Tested on: Mouse B16 melanoma cells
Experiment: Melanin production inhibition test
Assay type: cell-based
Conditions: 3 days after addition, graded by minimum non-cytotoxic concentration at which ratio of melanin amount was 80% or less
Protocol: A test for melanin production inhibition by the compounds of the formula (1) was conducted. The test method is as follows.
Melanin Production Inhibition Test
(1) Inoculation of Cells and Addition of Test Substances
Mouse B16 melanoma cells were inoculated in a six well plate at 100,000 cells/well. The next day, test substance solutions (solvent: DMSO) were added.
(2) Cell Proliferation Test
Three days after the addition of the test substance solution, the medium was removed by aspiration. Then 1 ml of EMEM medium containing 10% Alamar Blue solution was added, and a reaction was allowed to proceed at 37° C. After 30 minutes, 100 μL of the reaction mixture was transferred to a 96 well plate and fluorescence was measured at an excitation wavelength of 544 nm and a measurement wavelength of 590 nm. Using the value thus measured as a relative value of cell count, a ratio of the cell count (% cell count) of the test substance-added group to the test substance-absent group (group in which only the solvent was added) was calculated. […] It was determined that a compound having the % cell count of 80% or more was non-cytotoxic, and that a compound having the % cell count of less than 80% was cytotoxic.
(3) Quantification of Melanin
The cells after the cell proliferation test were washed with PBS three times, and then lysed by addition of 200 μL of 1M NaOH to measure an absorbance at 475 nm. […]

## CC1(C)CSC(Nc2ccccc2)=N1 [Compound 1, 4,4-dimethyl-N-phenyl-4,5-dihydrothiazol-2-amine]
  Inhibitory effect on melanin production: ⊚ (the minimum concentration for inhibition of melanin production was 1 ppm or less)
